# pIC50: −log10 of the molar value.
# What was measured:
# Rat CYP11B1 = molecular target: T1, Rat CYP11B1 (Rattus norvegicus, UniProt P15393); experiment: In vitro rat CYP11B1 assay; type: biochemical; details: V79-4 cell homogenate, 11-deoxycorticosterone to corticosterone, SPA
# T1 construct: made in house; host or cells: V79-4 cell line #259 (stably selected with geneticin and hygromycin); sonicated homogenate, 500 x g supernatant
# T1 sequence (P15393 25-499): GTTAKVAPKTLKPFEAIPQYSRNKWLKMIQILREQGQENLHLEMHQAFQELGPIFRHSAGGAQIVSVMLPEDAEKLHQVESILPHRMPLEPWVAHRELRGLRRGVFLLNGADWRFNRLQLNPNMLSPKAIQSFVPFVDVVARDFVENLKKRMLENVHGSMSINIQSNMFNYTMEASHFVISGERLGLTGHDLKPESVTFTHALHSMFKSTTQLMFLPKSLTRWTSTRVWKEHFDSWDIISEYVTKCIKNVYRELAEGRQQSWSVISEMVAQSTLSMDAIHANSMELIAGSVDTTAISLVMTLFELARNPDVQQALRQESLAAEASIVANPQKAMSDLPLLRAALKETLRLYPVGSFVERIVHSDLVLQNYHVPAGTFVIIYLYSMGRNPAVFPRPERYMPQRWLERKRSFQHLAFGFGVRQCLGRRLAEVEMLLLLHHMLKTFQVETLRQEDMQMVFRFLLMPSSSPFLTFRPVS
# Text: (§1) Complete EDTA-free protease inhibitor tablets were obtained from Roche Applied Science (Indianapolis, Ind.). Dulbecco's modified Eagle medium (DMEM), antibiotic, geneticin, hygromycin, and fetal bovine serum (FBS) were products of Invitrogen (Carlsbad, Calif.). NADPH Regeneration Solution A and Solution B were purchased from BD Biosciences Clontech (Palo Alto, Calif.). Anti-sheep PVT SPA beads and [1,2,6,7-^3H(N)]corticosterone were acquired from Amersham (Piscataway, N.J.) and PerkinElmer (Boston, Mass.), respectively.
# (§2) For enzyme preparation, #259 cells were seeded in 150 mm dishes in double-selection medium. Following 2 days of growth, cells were washed once with PBS, scraped and collected in PBS, and centrifuged at 1,300 rpm for 6 min. […] The sonication procedure was repeated 3 more times, with a 5 min rest on ice between sonications. The sonicated material was then spun at 500×g for 4 min to remove unbroken cells. The supernatant was brought to a final glycerol concentration of 5%, flash-frozen in liquid nitrogen, and stored at −80° C.
# The CYP11B1 assays were performed in 96-well U-bottom non-tissue-culture-treated plates. […] Plates were then centrifuged at 2,400 rpm for 6 min, and 50 μl of supernatant was removed for measurement of corticosterone content by scintillation proximity assay (SPA).
# Measurement of corticosterone was performed using a 96-well plate format. […] Anti-sheep PVT SPA beads (50 μl) were then added to each well and incubated overnight at room temperature prior to counting in a Microbeta plate counter. The amount of corticosterone in each sample was calculated by comparing with a standard curve generated using known quantities of the hormone.
# Full concentration-response curves of an inhibitor were performed at least 3 times. The IC50 values were derived using a non-linear least squares curve-fitting program from IDBS XLfit.
# Human CYP11B1 = molecular target: T2, Human CYP11B1 (Homo sapiens, UniProt P15538); experiment: In vitro human CYP11B1 assay; type: biochemical; details: V79-4 cell homogenate, 11-deoxycortisol to cortisol, SPA
# T2 construct: made in house; host or cells: V79-4 cell line #618 (stably selected with geneticin and hygromycin); sonicated homogenate, 500 x g supernatant
# T2 sequence (P15538 25-503): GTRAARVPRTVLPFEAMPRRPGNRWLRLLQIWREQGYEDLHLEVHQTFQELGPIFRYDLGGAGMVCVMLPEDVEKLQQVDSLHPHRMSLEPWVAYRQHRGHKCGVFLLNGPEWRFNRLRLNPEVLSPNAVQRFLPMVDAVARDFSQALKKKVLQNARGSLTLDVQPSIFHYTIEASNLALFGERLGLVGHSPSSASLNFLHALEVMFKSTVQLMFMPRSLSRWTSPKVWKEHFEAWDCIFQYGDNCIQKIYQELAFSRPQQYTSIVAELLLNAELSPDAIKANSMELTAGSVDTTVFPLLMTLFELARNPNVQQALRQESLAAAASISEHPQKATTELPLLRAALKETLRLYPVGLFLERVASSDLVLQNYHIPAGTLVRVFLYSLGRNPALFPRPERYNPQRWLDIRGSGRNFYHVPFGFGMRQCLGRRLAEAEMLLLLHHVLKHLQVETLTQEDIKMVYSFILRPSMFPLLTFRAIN
# Text: as §1, with “Anti-mouse” for “Anti-sheep”, “[1,2,6,7-^3H(N)]hydrocortisone” for “[1,2,6,7-^3H(N)]corticosterone”
# as §2, with “Following” for “For enzyme preparation, #259 cells were seeded in 150 mm dishes in double-selection medium. Following”, “4” for “2”
# The CYP11B1 assays were performed in 96-well U-bottom non-tissue-culture-treated plates. […] Plates were then centrifuged at 2,400 rpm for 6 min, and 50 μl of supernatant was removed for measurement of cortisol content by scintillation proximity assay (SPA). Measurement of cortisol was performed using a 96-well plate format. […] Anti-mouse PVT SPA beads (50 μl) were then added to each well and incubated overnight at room temperature prior to counting in a Microbeta plate counter. The amount of cortisol in each sample was calculated by comparing with a standard curve generated using known quantities of the hormone. Full concentration-response curves of an inhibitor were performed at least 3 times. The IC50 values were derived using a non-linear least squares curve-fitting program from IDBS XLfit.
pIC50 (Rat CYP11B1),pIC50 (Human CYP11B1),SMILES
9.00,9.70,"N#Cc1ccc(C2CCCCc3cncn32)c(Br)c1 (racemic) [3-bromo-4-(6,7,8,9-tetrahydro-5H-imidazo[1,5-a]azepin-5-yl)benzonitrile racemate, 3-bromo-4-(6,7,8,9-tetrahydro-5H-imidazo[1,5-a]azepin-5-yl)benzonitrile]"
9.52,9.52,"N#Cc1ccc(C2CCCCc3cncn32)c(-c2ccc(F)cc2)c1 (single isomer, unassigned) [4′-fluoro-6-(6,7,8,9-tetrahydro-5H-imidazo[1,5-a]azepin-5-yl)biphenyl-3-carbonitrile]"
8.70,9.10,"COc1ccc(CN(C)C(=O)C2(c3ccc(C#N)cc3Cl)CCc3cncn32)cc1 (stereo not drawn) [5-(2-chloro-4-cyanophenyl)-N-(4-methoxybenzyl)-N-methyl-6,7-dihydro-5H-pyrrolo[1,2-c]imidazole-5-carboxamide]"

# Reference: patent US8609862B2, “Use of an adrenal hormone-modifying agent” (Novartis AG, priority 2010, dated 2013)
